From patent US12486278B2, “MASP-2 inhibitors and methods of use” (Omeros Corporation, priority 2019, dated 2025)
Structures can show the parent of a compound that is named as a salt.

Molecular target: T1, MASP-2 (CCP1-CCP2-SP) (Homo sapiens, UniProt O00187)
T1 construct: 15 μL of Enzyme MASP-2 (CCP1-CCP2-SP) in Assay Buffer
Test: Enzymatic Assay for MASP-2 (fluorogenic substrate)
Type: biochemical
Settings: fluorogenic substrate based on C2 cleavage site; room temperature, 20 min; 20 mM HEPES pH 7.4, 140 mM NaCl, 0.1% Tween 20
Method in brief: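 Fluorogenic substrate built on the C2 cleavage site, in 20 mM HEPES pH 7.4, 140 mM NaCl, 0.1% Tween 20, run at room temperature for 20 min before an acetic acid stop. Fluorescence normalised to DMSO-only and no-enzyme controls; IC50 taken as equivalent to Ki, with tight- or slow-binding inhibitors treated separately.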

T1 sequence (O00187 445-686 limits assumed): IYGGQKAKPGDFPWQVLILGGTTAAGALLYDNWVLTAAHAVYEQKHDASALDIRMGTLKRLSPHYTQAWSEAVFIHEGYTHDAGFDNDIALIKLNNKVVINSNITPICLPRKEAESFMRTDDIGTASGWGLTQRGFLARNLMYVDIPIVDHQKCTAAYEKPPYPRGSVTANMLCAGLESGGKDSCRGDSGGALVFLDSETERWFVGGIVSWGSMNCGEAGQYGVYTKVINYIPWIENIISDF
T1 sequence (O00187 298-444 partner limits assumed): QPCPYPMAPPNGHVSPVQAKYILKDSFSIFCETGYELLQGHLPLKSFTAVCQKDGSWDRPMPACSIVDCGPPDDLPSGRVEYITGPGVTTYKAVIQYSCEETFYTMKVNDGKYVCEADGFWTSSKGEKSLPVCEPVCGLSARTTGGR

`Cc1nc(N)ccc1CNC(=O)[C@H](C)NC(=O)[C@H]1C[C@H](Cc2cc(Br)c(Br)s2)CN1` [Compound I-17, (2R,4R)—N—((S)-1-(((6-Amino-2-Methylpyridin-3-Yl)Methyl)Amino)-1-Oxopropan-2-Yl)-4-((4,5-Dibromothiophen-2-Yl)Methyl)Pyrrolidine-2-Carboxamide Di-Trifluoroacetate] and `COC(=O)c1ccc(C[C@@H]2CN[C@@H](C(=O)N[C@@H](C)C(=O)NCc3ccc(N)nc3C)C2)cc1` [Compound I-50, Methyl 4-(((3S,5R)-5-(((S)-1-(((6-Amino-2-Methylpyridin-3-Yl)Methyl)Amino)-1-Oxopropan-2-Yl)Carbamoyl)Pyrrolidin-3-Yl)Methyl)Benzoate Dihydrochloride] cannot be ordered by Ki: less than 500 nM for the first, less than 500 nM for the second.

`C[C@H](NC(=O)[C@H]1C[C@H](c2ccccc2)CN1CC(=O)O)C(=O)NCc1ccc(C(=N)N)cc1` [Compound I-35, 2-((2R,4R)-2-(((S)-1-((4-Carbamimidoylbenzyl)Amino)-1-Oxopropan-2-Yl)Carbamoyl)-4-Phenylpyrrolidin-1-Yl)Acetic Acid Di-Trifluoroacetate] and `C[C@H](NC(=O)[C@H]1C[C@@H](c2ccccc2)CCN1CC(=O)O)C(=O)NCc1ccc(C(=N)N)cc1` [Compound I-34, 2-((2R,4S)-2-(((S)-1-((4-Carbamimidoylbenzyl)Amino)-1-Oxopropan-2-Yl)Carbamoyl)-4-Phenylpiperidin-1-Yl)Acetic Acid Di-Trifluoroacetate] cannot be ordered by Ki: less than 500 nM for the first, less than 500 nM for the second.

`C[C@H](NC(=O)c1cc(Cc2ccc(-c3ccccc3)cc2)c[nH]1)C(=O)NCc1ccc(C(=N)N)cc1` [Compound I-100, (S)-4-([1,1′-Biphenyl]-4-ylmethyl)-N-(1-((4-carbamimidoylbenzyl)amino)-1-oxopropan-2-yl)-1H-pyrrole-2-carboxamide trifluoroacetate] and `CCOC(=O)CCN1CC[C@H](c2ccccc2)C[C@@H]1C(=O)N[C@@H](C)C(=O)NCc1ccc(C(=N)N)cc1` [Compound I-31, Ethyl 3-((2R,4S)-2-(((S)-1-((4-Carbamimidoylbenzyl)Amino)-1-Oxopropan-2-Yl)Carbamoyl)-4-Phenylpiperidin-1-Yl)Propanoate] cannot be ordered by Ki: less than 500 nM for the first, less than 500 nM for the second.

`C[C@H](NC(=O)[C@H]1C[C@@H](c2cccc(C(N)=O)c2)CN1)C(=O)NCc1ccc(C(=N)N)cc1` [Compound I-15] and `C[C@H](NC(=O)[C@H]1C[C@H](c2ccccc2)CN1)C(=O)NCc1ccc(C(=N)N)cc1Cl` [Compound I-24, (2R,4R)—N—((S)-1-((4-Carbamimidoyl-2-Chlorobenzyl)Amino)-1-Oxopropan-2-Yl)-4-Phenylpyrrolidine-2-Carboxamide Di-Trifluoroacetate] cannot be ordered by Ki: less than 500 nM for the first, less than 500 nM for the second.

`CCN1C[C@@H](Cc2ccc(F)c(Cl)c2)C[C@@H]1C(=O)N[C@@H](C)C(=O)NCc1cnc2c(c1)c(Cl)cn2C` [Compound I-26, (2R,4S)—N—((S)-1-(((3-Chloro-1-Methyl-1H-Pyrrolo[2,3-B]Pyridin-5-Yl)Methyl)Amino)-1-Oxopropan-2-Yl)-4-(3-Chloro-4-Fluorobenzyl)-1-Ethylpyrrolidine-2-Carboxamide] and `C[C@H](NC(=O)[C@H]1C[C@H](Cc2cc(Cl)c(Cl)s2)CN1)C(=O)NCc1cnc2c(c1)c(Cl)cn2C` [Compound I-20, Trifluoroacetate] cannot be ordered by Ki: less than 500 nM for the first, less than 500 nM for the second.

Going from `C[C@H](NC(=O)[C@H]1C[C@H](Cc2ccccc2)CN1)C(=O)NCc1ccc2c(c1)CNC2` [Compound I-9, (2R,4S)-4-Benzyl-N—((S)-1-((Isoindolin-5-Ylmethyl)Amino)-1-Oxopropan-2-Yl)Pyrrolidine-2-Carboxamide Di-Trifluoroacetate] to `C[C@H](NC(=O)[C@H]1C[C@H](Cc2ccccc2)CN1)C(=O)NCc1ccc2ncc(Cl)n2c1` [Compound I-60, (2R,4S)-4-Benzyl-N—((S)-1-(((3-Chloroimidazo[1,2-A]Pyridin-6-Yl)Methyl)Amino)-1-Oxopropan-2-Yl)Pyrrolidine-2-Carboxamide Trifluoroacetate], the Ki rises from less than 500 nM to greater than 10000 nM. The first binds more tightly here.

`C[C@H](NC(=O)[C@H]1C[C@@H](c2ccccc2)CCN1)C(=O)NCc1ccc(C(=N)N)s1` [Compound I-91, (2R,4S)—N—((S)-1-(((5-carbamimidoylthiophen-2-yl)methyl)amino)-1-oxopropan-2-yl)-4-phenylpiperidine-2-carboxamide di-trifluoroacetate] and `Cc1nc(N)ccc1CNC(=O)[C@@H]1CCN1C(=O)[C@H]1C[C@@H](c2ccccc2)CCN1` [Compound I-63, (S)—N-((6-Amino-2-Methylpyridin-3-Yl)Methyl)-1-((2R,4S)-4-Phenylpiperidine-2-Carbonyl)Azetidine-2-Carboxamide Di-Trifluoroacetate] cannot be ordered by Ki: less than 500 nM for the first, less than 500 nM for the second.

`Cc1nc(N)ccc1CNC(=O)[C@@H]1CCN1C(=O)[C@H]1C[C@@H](c2cccc(-c3ccccc3)c2)CCN1` [Compound I-65, (S)-1-((2R,4S)-4-([1,1′-Biphenyl]-3-Yl)Piperidine-2-Carbonyl)-N-((6-Amino-2-Methylpyridin-3-Yl)Methyl)Azetidine-2-Carboxamide Di-Trifluoroacetate] and `C[C@H](NC(=O)[C@H]1C[C@@H](c2cccc(-n3cccn3)c2)CCN1)C(=O)NCc1cc2cnccc2[nH]1` [Compound I-80, (2R,4S)-4-(3-(1H-Pyrazol-1-Yl)Phenyl)-N—((S)-1-(((1H-Pyrrolo[3,2-C]Pyridin-2-Yl)Methyl)Amino)-1-Oxopropan-2-Yl)Piperidine-2-Carboxamide Dihydrochloride] cannot be ordered by Ki: less than 500 nM for the first, less than 500 nM for the second.

`C[C@H](NC(=O)[C@H]1C[C@H](Cc2ccc(F)c(Cl)c2)CN1CCC(=O)O)C(=O)NCc1ccc(C(=N)N)cc1` [Compound I-36, 3-((2R,4S)-2-(((S)-1-((4-Carbamimidoylbenzyl)Amino)-1-Oxopropan-2-Yl)Carbamoyl)-4-(3-Chloro-4-Fluorobenzyl)Pyrrolidin-1-Yl)Propanoic Acid Di-Trifluoroacetate] and `C[C@H](NC(=O)[C@H]1C[C@H](Cc2cccc(Cl)c2)CN1)C(=O)NCc1cnc2[nH]cc(Cl)c2c1` [Compound I-82, (2R,4S)—N—((S)-1-(((3-Chloro-1H-Pyrrolo[2,3-B]Pyridin-5-Yl)Methyl)Amino)-1-Oxopropan-2-Yl)-4-(3-Chlorobenzyl)Pyrrolidine-2-Carboxamide Dihydrochloride] cannot be ordered by Ki: less than 500 nM for the first, less than 500 nM for the second.

`C[C@H](NC(=O)[C@H]1C[C@H](Cc2cc(Br)c(Cl)s2)CN1)C(=O)NCc1cc2cnccc2[nH]1` [Compound I-21, (2R,4R)—N—((S)-1-(((1H-Pyrrolo[3,2-C]Pyridin-2-Yl)Methyl)Amino)-1-Oxopropan-2-Yl)-4-((4-Bromo-5-Chlorothiophen-2-Yl)Methyl)Pyrrolidine-2-Carboxamide Di-Trifluoroacetate] and `C[C@H](NC(=O)[C@H]1C[C@H](C2(c3ccccc3)CC2)CN1)C(=O)NCc1cc2cnccc2[nH]1` [Compound I-8, (2R,4R)—N—((S)-1-(((1H-Pyrrolo[3,2-C]Pyridin-2-Yl)Methyl)Amino)-1-Oxopropan-2-Yl)-4-(1-Phenylcyclopropyl)Pyrrolidine-2-Carboxamide Di-Trifluoroacetate] cannot be ordered by Ki: less than 500 nM for the first, less than 500 nM for the second.

In the case of `CCOC(=O)CCN1CC[C@H](c2ccccc2)C[C@@H]1C(=O)N[C@@H](C)C(=O)NCc1cc2cnccc2[nH]1` [Compound I-106, Ethyl 3-((2R,4S)-2-(((S)-1-(((1H-pyrrolo[3,2-c]pyridin-2-yl)methyl)amino)-1-oxopropan-2-yl)carbamoyl)-4-phenylpiperidin-1-yl)propanoate], the Ki is reported as less than 500 nM.
